# Experimental data from US7625841B2, “Substituted thiene-3-ylsulphonylamino(thio)carbonyltriazolin(ethi)ones” (Bayer CropScience AG, priority 2001, dated 2009).
# Key:
# Type in all cases: in vivo
# Alopecurus = experiment: Pre-emergence test/greenhouse; conditions: greenhouse, application rate 15 gai/ha, rated after three weeks, 0%=no effect, 100%=total destruction
# Method: (§1) • Solvent: 5 parts by weight of acetone • Emulsifier: 1 part by weight of alkylaryl polyglycol ether
# (§2) To produce a suitable preparation of active compound, 1 part by weight of active compound is mixed with the stated amount of solvent, the stated amount of emulsifier is added and the concetrate is diluted with water to the desired concentration.
# (§3) Seeds of the test plants are sown in normal soil. After 24 hours, the soil is sprayed with the preparation of active compound such that the particular amount of active compound desired is applied per unit area. The concentration of active compound in the spray liquor is chosen such that the particular amount of active compound desired is applied in 1000 litres of water per hectare.
# (§4) After three weeks, the degree of damage to the plants is rated in % damage in comparison to the development of the untreated control. The figures denote: • 0%=no effect (like untreated control) • 100%=total destruction
# Amaranthus = experiment: Pre-emergence test/greenhouse; conditions: greenhouse, application rate 15 gai/ha, rated after three weeks, 0%=no effect, 100%=total destruction
# Method: as §1, §2, §3, §4
# Avena fatua [1] = experiment: Pre-emergence test/greenhouse; conditions: greenhouse, application rate 15 gai/ha, rated after three weeks, 0%=no effect, 100%=total destruction
# Method: as §1, §2, §3, §4
# Bromus [2] = experiment: Pre-emergence test/greenhouse; conditions: greenhouse, application rate 15 gai/ha, rated after three weeks, 0%=no effect, 100%=total destruction
# Method: as §1, §2, §3, §4
# Chenopodium = experiment: Pre-emergence test/greenhouse; conditions: greenhouse, application rate 15 gai/ha, rated after three weeks, 0%=no effect, 100%=total destruction
# Method: as §1, §2, §3, §4
# Digitaria [3] = experiment: Pre-emergence test/greenhouse; conditions: greenhouse, application rate 15 gai/ha, rated after three weeks, 0%=no effect, 100%=total destruction
# Method: as §1, §2, §3, §4
# Galium = experiment: Pre-emergence test/greenhouse; conditions: greenhouse, application rate 15 gai/ha, rated after three weeks, 0%=no effect, 100%=total destruction
# Method: as §1, §2, §3, §4
# Lolium [4] = experiment: Pre-emergence test/greenhouse; conditions: greenhouse, application rate 15 gai/ha, rated after three weeks, 0%=no effect, 100%=total destruction; for pest or weed control at 15 g/ha: Lolium, 504 h, read-out: degree of damage to the plants, Lolium
# Method: as §1, §2, §3, §4
# Matricaria = experiment: Pre-emergence test/greenhouse; conditions: greenhouse, application rate 15 gai/ha, rated after three weeks, 0%=no effect, 100%=total destruction; for pest or weed control at 15 g/ha: Matricaria, 504 h, read-out: degree of damage to the plants, Matricaria
# Method: as §1, §2, §3, §4
# Polygonum = experiment: Pre-emergence test/greenhouse; conditions: greenhouse, application rate 15 gai/ha, rated after three weeks, 0%=no effect, 100%=total destruction
# Method: as §1, §2, §3, §4
# Setaria [5] = experiment: Pre-emergence test/greenhouse; conditions: greenhouse, application rate 15 gai/ha, rated after three weeks, 0%=no effect, 100%=total destruction
# Method: as §1, §2, §3, §4
# Stellaria = experiment: Pre-emergence test/greenhouse; conditions: greenhouse, application rate 15 gai/ha, rated after three weeks, 0%=no effect, 100%=total destruction; for pest or weed control at 15 g/ha: Stellaria, 504 h, read-out: degree of damage to the plants, Stellaria
# Method: as §1, §2, §3, §4
# Xanthium [6] = experiment: Pre-emergence test/greenhouse; conditions: Xanthium, 504 h, greenhouse, application rate 15 gai/ha, rated after three weeks, 0%=no effect, 100%=total destruction, read-out: degree of damage to the plants, Xanthium
# Method: as §1, §2, §3, §4
# maize = experiment: Pre-emergence test/greenhouse; conditions: Zea mays, 504 h, greenhouse, application rate 15 gai/ha, rated after three weeks, 0%=no effect, 100%=total destruction, read-out: degree of damage to the plants, maize
# Method: as §1, §2, §3, §4
# soybeans = experiment: Pre-emergence test/greenhouse; conditions: greenhouse, application rate 15 gai/ha, rated after three weeks, 0%=no effect, 100%=total destruction
# Method: as §1, §2, §3, §4
# wheat = experiment: Pre-emergence test/greenhouse; conditions: Triticum aestivum, 504 h, greenhouse, application rate 15 gai/ha, rated after three weeks, 0%=no effect, 100%=total destruction, read-out: degree of damage to the plants, wheat
# Method: as §1, §2, §3, §4
# Solanum = experiment: Pre-emergence test/greenhouse; conditions: greenhouse, application rate 15 gai/ha, rated after three weeks, 0%=no effect, 100%=total destruction
# Method: as §1, §2, §3, §4
# Avena fatua [7] = experiment: Post-emergence test/greenhouse; conditions: greenhouse, application rate 15 gai/ha, rated after three weeks, 0%=no effect, 100%=total destruction
# Method: as §1
# (§5) To produce a suitable preparation of active compound, 1 part by weight of active compound is mixed with the stated amount of solvent, the stated amount of emulsifier is added and the concentrate is diluted with water to the desired concentration.
# (§6) Test plants of a height of 5-15 cm are sprayed with the preparation of active compound such that the particular amounts of active compound desired are applied per unit area. The concentration of the spray liquor is chosen such that the particular amounts of active compound desired are applied in 1000 l of water/ha.
# (§7) After three weeks, the degree of damage to the plants is rated in % damage in comparison to the development of the untreated control.
# (§8) The figures denote: • 0%=no effect (like untreated control) • 100%=total destruction
# Digitaria [8] = experiment: Post-emergence test/greenhouse; conditions: greenhouse, application rate 15 gai/ha, rated after three weeks, 0%=no effect, 100%=total destruction
# Method: as §1, §5, §6, §7, §8
# Echinochloa = experiment: Post-emergence test/greenhouse; conditions: greenhouse, application rate 15 gai/ha, rated after three weeks, 0%=no effect, 100%=total destruction
# Method: as §1, §5, §6, §7, §8
# Lolium [9] = experiment: Post-emergence test/greenhouse; conditions: greenhouse, application rate 15 gai/ha, rated after three weeks, 0%=no effect, 100%=total destruction
# Method: as §1, §5, §6, §7, §8
# Setaria [10] = experiment: Post-emergence test/greenhouse; conditions: greenhouse, application rate 15 gai/ha, rated after three weeks, 0%=no effect, 100%=total destruction
# Method: as §1, §5, §6, §7, §8
# Viola = experiment: Post-emergence test/greenhouse; conditions: greenhouse, application rate 15 gai/ha, rated after three weeks, 0%=no effect, 100%=total destruction
# Method: as §1, §5, §6, §7, §8
# Xanthium [11] = experiment: Post-emergence test/greenhouse; conditions: greenhouse, application rate 15 gai/ha, rated after three weeks, 0%=no effect, 100%=total destruction
# Method: as §1, §5, §6, §7, §8
# weeds [12] = experiment: Post-emergence test, summary for weeds
# Method: as §1, §5, §6, §7, §8
# [13] = system: crop plants such as, for example, maize, oilseed rape and wheat; experiment: Post-emergence test, summary for crop plants
# Method: as §1, §5, §6, §7, §8
# weeds [14] = experiment: Pre-emergence test, summary for weeds
# Method: as §1, §2, §3, §4
# [15] = system: crop plants, such as, for example, maize, soyabean and wheat; experiment: Pre-emergence test, summary for crop plants
# Method: as §1, §2, §3, §4
# Bromus [16] = experiment: Post-emergence test/greenhouse; conditions: greenhouse, application rate 15 gai/ha, rated after three weeks, 0%=no effect, 100%=total destruction
# Method: as §1, §5, §6, §7, §8
Compound,"degree of damage to the plants, Alopecurus (Alopecurus)","degree of damage to the plants, Amaranthus (Amaranthus)","degree of damage to the plants, Avena fatua (Avena fatua [1])","degree of damage to the plants, Bromus (Bromus [2])","degree of damage to the plants, Chenopodium (Chenopodium)","degree of damage to the plants, Digitaria (Digitaria [3])","degree of damage to the plants, Galium (Galium)",pest or weed control at 15 g/ha (Lolium [4]),pest or weed control at 15 g/ha (Matricaria),"degree of damage to the plants, Polygonum (Polygonum)","degree of damage to the plants, Setaria (Setaria [5])",pest or weed control at 15 g/ha (Stellaria),pest or weed control at 15 g/ha (Xanthium [6]),plant injury at 15 g/ha (maize),"degree of damage to the plants, soybeans (soybeans)",plant injury at 15 g/ha (wheat),"degree of damage to the plants, Solanum (Solanum)","degree of damage to the plants, Avena fatua (Avena fatua [7])","degree of damage to the plants, Digitaria (Digitaria [8])","degree of damage to the plants, Echinochloa (Echinochloa)",other results
"COC(=O)c1csc(C)c1S(=O)(=O)NC(=O)n1nc(OC(C)C)n(C2CC2)c1=O [(C), methyl 4-[[[(4-cyclopropyl-4,5-dihydro-5-oxo-3-isopropoxy-1H-1,2,4-triazol-1-yl)-carbonyl]amino]sulfonyl]-5-methyl-3-thiophenecarboxylate, reference compound]",0%,80%,50%,70%,40%,20%,70%,50%,80%,60%,50%,80%,0%,0%,0%,0%,–,–,–,–,–
"COC(=O)c1csc(C)c1S(=O)(=O)NC(=O)n1nc(C2CC2)n(C2CC2)c1=O [(D), methyl 4-[[[(3,4-dicyclopropyl-4,5-dihydro-5-oxo-1H-1,2,4-triazol-1-yl)carbonyl]-amino]sulfonyl]-5-methyl-3-thiophenecarboxylate, reference compound]",0%,80%,70%,10%,0%,20%,0%,20%,10%,10%,10%,60%,0%,20%,0%,0%,80%,–,–,–,–
"COC(=O)c1csc(C)c1S(=O)(=O)NC(=O)n1nc(C)n(C)c1=O [(E), methyl 4-[[[(4,5-dihydro-3,4-dimethyl-5-oxo-1H-1,2,4-triazol-1-yl)carbonyl]-amino]sulfonyl]-5-methyl-3-thiophenecarboxylate, reference compound]",20%,10%,0%,20%,0%,0%,0%,0%,20%,20%,20%,40%,0%,0%,0%,0%,70%,–,–,–,–
CCCc1nn(C(=O)NS(=O)(=O)c2c(C(=O)OC)csc2C)c(=O)n1C1CC1 [Example 48],–,100%,95%,–,–,–,–,–,–,95%,–,–,–,–,–,–,–,90%,90%,95%,"degree of damage to the plants, Lolium (Lolium [9]): 100%; degree of damage to the plants, Setaria (Setaria [10]): 80%; degree of damage to the plants, Viola (Viola): 95%; degree of damage to the plants, Xanthium (Xanthium [11]): 90%; degree of damage to the plants, Lolium (Lolium [4]): 95%; degree of damage to the plants, Matricaria (Matricaria): 95%; degree of damage to the plants, Stellaria (Stellaria): 100%; activity against weeds compared with the known compounds (A) and (B) (weeds [12]): considerably stronger activity against weeds; compatibility with crop plants compared with the known compounds (A) and (B) [13]: substantially better compatibility with crop plants; activity against weeds compared with the known compounds (A) to (G) (weeds [14]): considerably stronger activity against weeds; tolerance by crop plants [15]: tolerated well by crop plants"
"CCc1nn(C(=O)NS(=O)(=O)c2c(C(=O)OC)csc2C)c(=O)n1C [(F), methyl 4-[[[(4,5-dihydro-3-ethyl-4-methyl-5-oxo-1H-1,2,4-triazol-1-yl)carbonyl]-amino]sulfonyl]-5-methyl-3-thiophenecarboxylate, reference compound]",70%,40%,60%,70%,0%,60%,10%,40%,20%,50%,30%,70%,0%,0%,10%,0%,80%,–,–,–,–
CCc1nn(C(=O)NS(=O)(=O)c2c(C(=O)OC)csc2C)c(=O)n1C1CC1 [Example 47],–,100%,95%,–,–,–,–,–,–,90%,95%,–,–,–,–,–,–,95%,90%,95%,"degree of damage to the plants, Bromus (Bromus [16]): 80%; degree of damage to the plants, Lolium (Lolium [9]): 100%; degree of damage to the plants, Setaria (Setaria [10]): 90%; degree of damage to the plants, Viola (Viola): 100%; degree of damage to the plants, Xanthium (Xanthium [11]): 80%; degree of damage to the plants, Lolium (Lolium [4]): 80%; degree of damage to the plants, Matricaria (Matricaria): 100%; degree of damage to the plants, Stellaria (Stellaria): 100%; activity against weeds compared with the known compounds (A) and (B) (weeds [12]): considerably stronger activity against weeds; compatibility with crop plants compared with the known compounds (A) and (B) [13]: substantially better compatibility with crop plants; activity against weeds compared with the known compounds (A) to (G) (weeds [14]): considerably stronger activity against weeds; tolerance by crop plants [15]: tolerated well by crop plants"
